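How tested: cells in 96-well plates exposed to compound for 48 hours at five concentrations. The concentration for 50% growth inhibition is given as GI50. TGI: total growth inhibition.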

This is an account of results in PubChem BioAssay (NCI).

Among the test systems are OVCAR-4 ovarian; SF-539 CNS; M14 melanoma; CCRF-CEM leukemia; T-47D breast; A549 NSCLC; MDA-MB-435; NCI-H522 lung; SW-620 colon; NCI/ADR-RES ovarian.
Holding throughout (experiment): NCI anticancer screen, dose series, 48 h

With `CC1=Cc2cc3[n-]c(cc4nc(cc5[n-]c(cc1n2)cc5C)C(C)=C4CCC(=O)O)c(CCC(=O)O)c3C.[Pd+2]`, the TGI in the assay on OVCAR-4 ovarian is over 46.8 µM; in the assay on SF-539 CNS, 13.7 µM; with M14 melanoma, 31.1 µM; in the assay with CCRF-CEM leukemia it was 13.7 µM; in the assay with T-47D breast, over 100 µM; in the assay with A549 NSCLC it was 54.7 µM. The TGI in the assay with MDA-MB-435 is over 100 µM; in the assay on NCI-H522 lung it was over 26.7 µM; in the assay on SW-620 colon, over 63.4 µM. The GI50 in the assay with SF-539 CNS was 3.71 µM; in the assay with M14 melanoma, 12.7 µM; in the assay on CCRF-CEM leukemia, 5.37 µM; with T-47D breast it was over 100 µM; with A549 NSCLC it was 32.1 µM; in the assay with MDA-MB-435, 68.9 µM. In addition, the GI50 in the assay on SW-620 colon is 15.2 µM.
On to `COC(=O)c1ccc(N=NN(C)CO)cc1`, for which the TGI in the assay on OVCAR-4 ovarian, with SF-539 CNS, in the assay on M14 melanoma, in the assay on CCRF-CEM leukemia, with A549 NSCLC and with NCI-H522 lung was over 100 µM in each case. The molecule further had a TGI with SW-620 colon of over 100 µM.
`O=C1C(=O)N(c2ccc(Cl)c(Cl)c2)C(=O)C(=O)C1c1nc2ccccc2o1`: the TGI in the assay with OVCAR-4 ovarian, with SF-539 CNS, in the assay with M14 melanoma, in the assay on A549 NSCLC, in the assay on NCI-H522 lung and in the assay on SW-620 colon was over 100 µM in each case.
`COc1ccc2ccc([Se]c3ccc4ccc(OC)cc4c3)cc2c1`: the TGI is 46.6 µM in the assay on OVCAR-4 ovarian; over 100 µM in the assay on SF-539 CNS; over 100 µM in the assay with M14 melanoma; over 100 µM with CCRF-CEM leukemia; over 100 µM in the assay with A549 NSCLC; over 100 µM in the assay with NCI-H522 lung. The TGI in the assay with SW-620 colon was over 100 µM.
In the case of `CCOC(=O)CC1=CSC2=NCCN12`, the TGI in the assay with OVCAR-4 ovarian, with SF-539 CNS, with M14 melanoma, in the assay on CCRF-CEM leukemia, in the assay with A549 NSCLC and with NCI-H522 lung was over 100 µM in each case. This molecule came in with a TGI in the assay with SW-620 colon of over 100 µM.
Turning to `O=C(O)C12C3CCCC1C2CC3` (stereo unspecified), the TGI in the assay on SF-539 CNS, with M14 melanoma, in the assay on CCRF-CEM leukemia, in the assay on A549 NSCLC and with NCI-H522 lung was over 100 µM in each case.
As to `O=c1cc(-c2ccccc2)nc2n1CCN2Cc1ccccc1`, the GI50 in the assay on OVCAR-4 ovarian is 74.4 µM; with SF-539 CNS, 27.8 µM; in the assay with M14 melanoma, 37.9 µM; with CCRF-CEM leukemia it was 16.2 µM; in the assay on T-47D breast, 65 µM; in the assay on A549 NSCLC it was 35.2 µM. The GI50 in the assay with MDA-MB-435 was 31.1 µM; in the assay on NCI-H522 lung, 20.8 µM; in the assay on SW-620 colon, 39.1 µM. Also, the TGI was over 100 µM in the assay with OVCAR-4 ovarian; 73.5 µM in the assay on SF-539 CNS; over 100 µM with M14 melanoma; 42.8 µM with CCRF-CEM leukemia; over 100 µM in the assay with T-47D breast; over 100 µM in the assay with A549 NSCLC. Besides, the figures for the TGI with MDA-MB-435, in the assay with NCI-H522 lung and in the assay with SW-620 colon were over 100 µM, 56.1 µM and over 100 µM, respectively.
Turning to `CC1NOC(=O)C1N=Nc1ccccc1Cl` (stereo unspecified), the TGI is over 100 µM with OVCAR-4 ovarian; over 100 µM in the assay with SF-539 CNS; over 100 µM in the assay on M14 melanoma; over 100 µM in the assay with CCRF-CEM leukemia; over 100 µM in the assay on A549 NSCLC; 34.2 µM with NCI-H522 lung. Further, the TGI with SW-620 colon is over 100 µM.
Turning to `COC(=O)Nc1nc2ccccc2c(=O)[nH]1`, the TGI with OVCAR-4 ovarian, in the assay with SF-539 CNS, in the assay on M14 melanoma, in the assay with CCRF-CEM leukemia, with NCI/ADR-RES ovarian and in the assay with T-47D breast was over 100 µM in each case. In addition, the TGI with A549 NSCLC, in the assay with NCI-H522 lung and with SW-620 colon was over 100 µM in each case.
Take `C=C1CC[C@@H]2C(C)(C)CCC[C@@]2(C)[C@@H]1Cc1cc(O)ccc1O`: the TGI was 3.72 µM in the assay with OVCAR-4 ovarian; 3.9 µM in the assay on SF-539 CNS; 24.3 µM with M14 melanoma; 5.23 µM in the assay on CCRF-CEM leukemia; 23 µM with A549 NSCLC; 3.66 µM in the assay on NCI-H522 lung. Also, the TGI with SW-620 colon was 23.8 µM.
On to `CS(=O)c1ccc(COP(N)(=O)N(CCCl)CCCl)cc1` (stereo unspecified), for which the TGI in the assay on OVCAR-4 ovarian, in the assay with SF-539 CNS, in the assay on M14 melanoma, in the assay on CCRF-CEM leukemia, in the assay on A549 NSCLC and in the assay with NCI-H522 lung was over 100 µM throughout. This molecule also gave a TGI in the assay on SW-620 colon of over 100 µM.
As to `Cc1nc2cccc(NCc3ccc(C(=O)NO)cc3)c2c(=O)n1-c1ccccc1`, the GI50 with OVCAR-4 ovarian was 2.67 µM; with SF-539 CNS it was 1.89 µM; in the assay on CCRF-CEM leukemia it was 2.09 µM; in the assay with NCI/ADR-RES ovarian, 1.53 µM; with A549 NSCLC, 2.22 µM; in the assay with MDA-MB-435, 1.63 µM. The values for the GI50 with NCI-H522 lung and in the assay on SW-620 colon were 1.29 µM and 1.55 µM, respectively. Also, the TGI in the assay with OVCAR-4 ovarian is 9.64 µM; in the assay with SF-539 CNS it was 4.05 µM; with CCRF-CEM leukemia, over 100 µM; with NCI/ADR-RES ovarian it was 7.16 µM; in the assay with A549 NSCLC, 5.17 µM; in the assay on MDA-MB-435, 3.28 µM. For the same molecule, the TGI with NCI-H522 lung is 2.61 µM; in the assay on SW-620 colon, 5.99 µM.
As to `c1ccc(N=C2c3ccccc3C3=NCCCN32)cc1`, the TGI was over 100 µM in the assay on OVCAR-4 ovarian; over 100 µM in the assay on SF-539 CNS; over 100 µM with M14 melanoma; over 100 µM in the assay on CCRF-CEM leukemia; over 100 µM in the assay with A549 NSCLC; 96.8 µM in the assay on NCI-H522 lung. Further, the TGI with SW-620 colon is over 100 µM.
With `O=[N+]([O-])C1C2C=CC(C2)[C@H]1c1ccccc1Cl` (stereo partly specified), the TGI is over 10 µM in the assay on OVCAR-4 ovarian; over 100 µM with SF-539 CNS; over 100 µM in the assay on M14 melanoma; over 100 µM in the assay with CCRF-CEM leukemia; over 100 µM with A549 NSCLC; over 31.6 µM with NCI-H522 lung. Further, the TGI in the assay on SW-620 colon is over 100 µM.
`CCOC(=O)c1ccc(N2C(=O)/C(=C\OC)c3ccccc3C2=O)cc1`: the TGI with OVCAR-4 ovarian, with SF-539 CNS, with A549 NSCLC, in the assay on NCI-H522 lung and in the assay on SW-620 colon was over 100 µM each time.
